The values that follow come from US20250027055A1, “METHOD OF CULTURING THREE-DIMENSIONAL CELLULAR TISSUES” (priority 2021, published 2025).

The structures appear in SMILES notation.

Data set [1] deals with vascular endothelial cells. As to the kind of experiment: Monocrotaline exposure of three-dimensional cellular tissue containing hepatocytes, vascular endothelial cells and hepatic stellate cells; CD31 fluorescent immunostaining. The data set is classed as cell-based. Conditions: mixed three-cell-type three-dimensional tissue; exposure to various concentrations of monocrotaline; FIG. 1B. The source says: FIG. 1A is a schematic diagram illustrating the above experiment. […] Then, after exposure to various concentrations of monocrotaline, the three-dimensional cellular tissue was fixed and stained for CD31 by fluorescent immunostaining. CD31 is a marker for endothelial cells.
The upper row of FIG. 1B is a fluorescence microscopy image showing the results of immunostaining. The lower row of FIG. 1B is a skeletonized image obtained by processing the image in the upper row of FIG. 1B.

The subject of data set [2] is vascular endothelial cells. As to the kind of experiment: Comparative experiment: liver tissue of hepatocytes only and separate three-dimensional tissue of vascular endothelial cells and hepatic stellate cells in the same well, monocrotaline exposure; CD31 fluorescent immunostaining. The data set is classed as cell-based. Conditions: hepatocyte tissue and endothelial/stellate tissue separate, not in contact, various concentrations of monocrotaline, FIG. 2B. The source says: FIG. 2A is a schematic diagram illustrating a comparative experiment. […] Then, after exposure to various concentrations of monocrotaline, these tissues were fixed and stained for CD31 by fluorescent immunostaining.
FIG. 2B is a fluorescence microscopy image showing the results of immunostaining.

On to `C[C@H]1C(=O)O[C@@H]2CCN3CC=C(COC(=O)[C@](C)(O)[C@]1(C)O)[C@H]23` [monocrotaline], for which the “damage to the vascular endothelial cells of the blood vessels (CD31 immunostaining)” value in data set [1] is reported as “damaged in a monocrotaline concentration-dependent manner”; in data set [2] it was “no damage to the vascular endothelial cells of the blood vessels was observed”.
